Reference: publication PMC5412686 (Biopharmaceutics & Drug Disposition, 2017)
≈ marks a conversion by molar mass, not a printed value. Where two headings read alike, the source gives them in different places.

Columns and labels:
[1] = Intrinsic metabolic clearance determined in human liver microsomes; type: in vitro ADME; conditions: pH 7.4
[2] = Humans, blood/plasma ratio; ref Supplemental Table S1; cited from earlier work
[3] = Rats, blood/plasma ratio; ref Supplemental Table S1; cited from earlier work
[4] = cited from earlier work
[5] = ref Supplemental Table S1, cited from earlier work; for HBD: number of hydrogen bond donors; for PSA: polar surface area; for log D: octanol/water at pH 7.4
[6] = Humans, cited from earlier work; for Urinary excretion (f e): excreted unchanged in urine, ref Supplemental Table S1; for CL: i.v.; for CL / F / Vss: ref Supplemental Table S2; for F: oral bioavailability
[7] = cited from earlier work; for CL: Rats, i.v., ref Supplemental Table S2; for F: rat, in vivo, po
[8] = human, Caco-2, pH 7.4, with cyclosporine A 10 μM
Caco‐2 cells (TC7 clone) = conditions: Equation 11 from measured P‐Caco2
[9] = Solubility in fasted state simulated intestinal fluid; type: physicochemical; conditions: FaSSIF, 37 °C, pH 6.5, fassif, thermodynamic from solid
[10] = no medium marked (buffer pH 7.4), ref Supplemental Table S1

| SMILES | microsomal CLint at 1 μM [1] [µL/min/mg] | R b [2] | R b [3] | Solubility (Biorelevant media or Buffer, pH 7.4) [4, 10] [mg/ml] | HBD [5] | PSA [5] | Acid pKa [5] | Urinary excretion (f e) [6] | CL [6] [L/h] | F [6] | Vss [6] [L/kg] | CL [7] [mL/min/kg] | F [7] | log D [5] | Papp at 2 h, 1 μM [8] [×10⁻⁶ cm/s] | Calculated P eff from P‐Caco2 (Caco‐2 cells (TC7 clone)) | Base pKa [5] | Solubility (Biorelevant media or Buffer, pH 7.4) ([4]; FaHIF, fasted human intestinal fluid) | solubility at 24 h [9] [µg/mL] |
| --- | --- | --- | --- | --- | --- | --- | --- | --- | --- | --- | --- | --- | --- | --- | --- | --- | --- | --- | --- |
| Cc1ccc(-c2nc3ccc(C)cn3c2CC(=O)N(C)C)cc1 [Zolpidem] | < 10 | 0.66 | 0.86 | 23 | 0 | 30.0 | 6.3 | < 1 % of dose | 18.85 | 0.78 | 0.68 | 15 | 0.27 |  |  |  |  |  |  |
| COc1ccc(C(CN(C)C)C2(O)CCCCC2)cc1 (stereo not drawn) [Venlafaxine] | < 10 |  |  |  | 1 | 32.8 |  | 4.6 % of dose | 60.35 | 0.37 |  | 64.5 | 0.13 | 0.76 | 33.2 | 4.0 10^−4 cm/s |  |  |  |
| COc1ccc2[nH]c([S+]([O-])Cc3ncc(C)c(OC)c3C)nc2c1 (stereo not drawn) [Omeprazole] | < 10 | 0.59 | 0.66 | 0.035 | 1 | 71.0 |  | 0 % of dose | 39.48 | 0.32 |  | 39.2 | 0.09 | 2.23 |  |  |  |  |  |
| Oc1ccc2c3c1O[C@H]1[C@@H](O)CC[C@@]4(O)[C@@H](C2)N(CC2CCC2)CC[C@]314 [Nalbuphine] | < 10 |  |  | 35.5 | 3 | 78.3 |  |  | 90 |  | 4.63 | 63 |  | 0.81 | 29.8 | 3.8 10^−4 cm/s | 10.0 |  |  |
| C=CC[C@@H]1/C=C(\C)C[C@H](C)C[C@H](OC)[C@H]2O[C@@](O)(C(=O)C(=O)N3CCCC[C@H]3C(=O)O[C@H](/C(C)=C/[C@@H]3CC[C@@H](O)[C@H](OC)C3)[C@H](C)[C@@H](O)CC1=O)[C@H](C)C[C@@H]2OC [Tacrolimus] |  | 35 | 1.4 | 0.008 | 3 | 185.9 |  | < 1 % of dose | 78.75 | 0.21 | 1.74 | 16.5 | 0.11 | 3.96 |  |  | 9.3 |  |  |
| CCN(CC)CC(=O)Nc1c(C)cccc1C [Lidocaine] |  | 0.87 | 1.27 |  |  |  |  |  |  |  |  |  |  |  |  |  |  |  |  |
| COCCc1ccc(OCC(O)CNC(C)C)cc1 (stereo not drawn) [Metoprolol] | 19 |  |  |  | 2 | 55.0 |  |  | 65.34 |  | 5.18 | 65.2 |  | 0.16 |  |  |  | 299.8 (FaHIF) mg/ml |  |
| CN(C)CCc1c[nH]c2ccc(C[C@H]3COC(=O)N3)cc12 [Zolmitriptan] |  |  |  | 20 | 2 | 56.8 |  | 8 % of dose | 43.06 | 0.7 |  | 29.4 | 0.41 |  |  |  |  |  |  |
| O=c1[nH]c2ccccc2n1CCCN1CCC(n2c(=O)[nH]c3cc(Cl)ccc32)CC1 [Domperidone] | 166 |  |  |  | 2 | 66.8 |  | < 1 % of dose | 42.06 |  |  | 39.2 |  | 3.33 | 38.6 | 4.3 10^−4 cm/s |  |  | 135 (≈ 317 µM) |
| COc1ccc(CCN(C)CCCC(C#N)(c2ccc(OC)c(OC)c2)C(C)C)cc1OC (stereo not drawn) [Verapamil] |  |  |  |  | 0 | 56.3 |  |  |  |  |  |  |  |  |  |  |  |  |  |
